Measurements reported in EP0454444A1, “Glutarimide derivatives and herbicides” (NISSAN CHEMICAL INDUSTRIES LTD., priority 1990, dated 1991).

What was measured:
Experiment in all cases: Herbicidal effect test by soil treatment
Assay type in all cases: in vivo
[1] = test system: large crabgrass (Digitaria adscendens); conditions: three weeks after spraying
Description: (§1) In a plastic box of 15 cm length, 22 cm width and 6 cm depth, there was placed a sterilized dilvial soil, and seeds of barnyardgrass (Echinochloa crusgalli), large crabgrass (Digitaria adscendens), annual sedge (Cyperus microiria), black nightshade (Solanum nigrum L.), hairly galinosoga (Galinsoga ciliat), rorippa ssp. (Rorippa atrovirens), rice (Oryza sativa), corn (Zea mays), wheat (Triticum aestivum), soybean (Glysine max) and cotton (Gossypium herbaceum) were sown mixedly. After covering soil to about 1 cm over the seeds, herbicides were sprayed evenly on the soil surface to predetermined proportions of the active ingredient In spraying, the wettable powder, emulsifiable concentrate, dry flowable or flowable in the above formulation examples were diluted with water and sprayed over the entire surface by means of a small sprayer. Three weeks after spraying, the herbicidal effect on crop plants including rice, corn, wheat, soybean, cotton and various kinds of weeds were examined according to the judgement criteria shown below. Judgement criteria
(§2) The above growth control rates are determined by measuring the top fresh weights of the treated plants and those of the non-treated plants, and culculated from the following formula: [formula]

[2] = test system: black nightshade (Solanum nigrum L.); conditions: three weeks after spraying
Description: as §1, §2

[3] = test system: cotton (Gossypium herbaceum); conditions: crop plant, three weeks after spraying
Description: as §1, §2

[4] = test system: corn (Zea mays); conditions: crop plant, three weeks after spraying
Description: as §1, §2

[5] = test system: rice (Oryza sativa); conditions: crop plant, three weeks after spraying
Description: as §1, §2

[6] = test system: wheat (Triticum aestivum); conditions: crop plant, three weeks after spraying
Description: as §1, §2

[7] = test system: soybean (Glysine max); conditions: crop plant, three weeks after spraying
Description: as §1, §2

[8] = test system: rorippa ssp. (Rorippa atrovirens); conditions: three weeks after spraying
Description: as §1, §2

[9] = test system: hairly galinosoga (Galinsoga ciliat); conditions: three weeks after spraying
Description: as §1, §2

[10] = test system: barnyardgrass (Echinochloa crusgalli); conditions: three weeks after spraying
Description: as §1, §2

[11] = test system: annual sedge (Cyperus microiria); conditions: three weeks after spraying
Description: as §1, §2

In the case of `CC(C)OC(=O)c1cc(N2C(=O)CC(C(C)C)C(C)C2=O)c(F)cc1Cl` (centres unmarked) [1-5], the “herbicidal effect, M (Digitaria adscendens)” value (“herbicidal effect, M” for short) ([1]; application amount 1.6 g/a) was 5 (Growth control,rates of more than 90% (almost completely withered)), the “herbicidal effect, H (Solanum nigrum L.)” value ([2]; application amount 1.6 g/a) was 5 (Growth control,rates of more than 90% (almost completely withered)) and the “herbicidal effect, C (Gossypium herbaceum)” value (shortened to “herbicidal effect, C”) ([3]; application amount 1.6 g/a) was 0 (Growth control rates of less than 5% (substantially no effect)). For the same compound, the “herbicidal effect, T (Zea mays)” value ([4]; application amount 1.6 g/a) was 0 (Growth control rates of less than 5% (substantially no effect)), the “herbicidal effect, R (Oryza sativa)” value ([5]; application amount 1.6 g/a) was 1 (Growth control rates of 5 to 20%) and the “herbicidal effect, W (Triticum vulgare)” value ([6]; application amount 1.6 g/a) was 1 (Growth control rates of 5 to 20%). The “herbicidal effect, S (Glysine max)” value ([7]; application amount 1.6 g/a) was 0 (Growth control rates of less than 5% (substantially no effect)), the “herbicidal effect, I (Rorippa indica)” value ([8]; application amount 1.6 g/a) was 5 (Growth control,rates of more than 90% (almost completely withered)) and the “herbicidal effect, D (Galinsoga ciliat)” value ([9]; application amount 1.6 g/a) was 5 (Growth control,rates of more than 90% (almost completely withered)). For the same compound, the “herbicidal effect, N (Echinochloa crusgalli)” value (from here on “herbicidal effect, N”) ([10]; application amount 1.6 g/a) was 4 (Growth control rates of 70 to 90%) and the “herbicidal effect, K (Cyperus microiria)” value ([11]; application amount 1.6 g/a) was 5 (Growth control,rates of more than 90% (almost completely withered)).

In the case of `CCOC(=O)c1cc(N2C(=O)CCC(C)C2=O)c(F)cc1Cl` (centres unmarked) [1-12], the “herbicidal effect, M” value ([1]; application amount 6.3 g/a) was 5 (Growth control,rates of more than 90% (almost completely withered)), the “herbicidal effect, H (Solanum nigrum L.)” value ([2]; application amount 6.3 g/a) was 2 (Growth control rates of 20 to 40%) and the “herbicidal effect, C” value ([3]; application amount 6.3 g/a) was 0 (Growth control rates of less than 5% (substantially no effect)). The “herbicidal effect, T (Zea mays)” value ([4]; application amount 6.3 g/a) was 0 (Growth control rates of less than 5% (substantially no effect)), the “herbicidal effect, R (Oryza sativa)” value ([5]; application amount 6.3 g/a) was 2 (Growth control rates of 20 to 40%) and the “herbicidal effect, W (Triticum vulgare)” value ([6]; application amount 6.3 g/a) was 1 (Growth control rates of 5 to 20%). For the same compound, the “herbicidal effect, S (Glysine max)” value ([7]; application amount 6.3 g/a) was 0 (Growth control rates of less than 5% (substantially no effect)), the “herbicidal effect, I (Rorippa indica)” value ([8]; application amount 6.3 g/a) was 5 (Growth control,rates of more than 90% (almost completely withered)) and the “herbicidal effect, D (Galinsoga ciliat)” value ([9]; application amount 6.3 g/a) was 4 (Growth control rates of 70 to 90%). For the same compound, the “herbicidal effect, N” value ([10]; application amount 6.3 g/a) was 2 (Growth control rates of 20 to 40%) and the “herbicidal effect, K (Cyperus microiria)” value ([11]; application amount 6.3 g/a) was 5 (Growth control,rates of more than 90% (almost completely withered)).

For `CCS(=O)(=O)Nc1cc(N2C(=O)CC(C(F)(F)F)CC2=O)c(F)cc1Cl` [1-15], the “herbicidal effect, M” value ([1]; application amount 1.6 g/a) was 5 (Growth control,rates of more than 90% (almost completely withered)), the “herbicidal effect, H (Solanum nigrum L.)” value ([2]; application amount 1.6 g/a) was 5 (Growth control,rates of more than 90% (almost completely withered)) and the “herbicidal effect, C” value ([3]; application amount 1.6 g/a) was 0 (Growth control rates of less than 5% (substantially no effect)). For the same compound, the “herbicidal effect, T (Zea mays)” value ([4]; application amount 1.6 g/a) was 0 (Growth control rates of less than 5% (substantially no effect)), the “herbicidal effect, R (Oryza sativa)” value ([5]; application amount 1.6 g/a) was 0 (Growth control rates of less than 5% (substantially no effect)) and the “herbicidal effect, W (Triticum vulgare)” value ([6]; application amount 1.6 g/a) was 0 (Growth control rates of less than 5% (substantially no effect)). For the same compound, the “herbicidal effect, S (Glysine max)” value ([7]; application amount 1.6 g/a) was 0 (Growth control rates of less than 5% (substantially no effect)), the “herbicidal effect, I (Rorippa indica)” value ([8]; application amount 1.6 g/a) was 5 (Growth control,rates of more than 90% (almost completely withered)) and the “herbicidal effect, D (Galinsoga ciliat)” value ([9]; application amount 1.6 g/a) was 5 (Growth control,rates of more than 90% (almost completely withered)). The “herbicidal effect, N” value ([10]; application amount 1.6 g/a) was 3 (Growth control rates of 40 to 70%) and the “herbicidal effect, K (Cyperus microiria)” value ([11]; application amount 1.6 g/a) was 5 (Growth control,rates of more than 90% (almost completely withered)).

With `CC1CC(=O)N(c2cc3c(cc2F)OCC(=O)N3)C(=O)C1` [1-22] the “herbicidal effect, M” value ([1]; application amount 1.6 g/a) was 5 (Growth control,rates of more than 90% (almost completely withered)), the “herbicidal effect, H (Solanum nigrum L.)” value ([2]; application amount 1.6 g/a) was 5 (Growth control,rates of more than 90% (almost completely withered)) and the “herbicidal effect, C” value ([3]; application amount 1.6 g/a) was 0 (Growth control rates of less than 5% (substantially no effect)). For the same compound, the “herbicidal effect, T (Zea mays)” value ([4]; application amount 1.6 g/a) was 0 (Growth control rates of less than 5% (substantially no effect)), the “herbicidal effect, R (Oryza sativa)” value ([5]; application amount 1.6 g/a) was 0 (Growth control rates of less than 5% (substantially no effect)) and the “herbicidal effect, W (Triticum vulgare)” value ([6]; application amount 1.6 g/a) was 0 (Growth control rates of less than 5% (substantially no effect)). The “herbicidal effect, S (Glysine max)” value ([7]; application amount 1.6 g/a) was 0 (Growth control rates of less than 5% (substantially no effect)), the “herbicidal effect, I (Rorippa indica)” value ([8]; application amount 1.6 g/a) was 5 (Growth control,rates of more than 90% (almost completely withered)) and the “herbicidal effect, D (Galinsoga ciliat)” value ([9]; application amount 1.6 g/a) was 5 (Growth control,rates of more than 90% (almost completely withered)). For the same compound, the “herbicidal effect, N” value ([10]; application amount 1.6 g/a) was 5 (Growth control,rates of more than 90% (almost completely withered)) and the “herbicidal effect, K (Cyperus microiria)” value ([11]; application amount 1.6 g/a) was 5 (Growth control,rates of more than 90% (almost completely withered)).

With `C#CCN1C(=O)COc2cc(F)c(N3C(=O)CC(C)CC3=O)cc21` [1-23] the “herbicidal effect, M” value ([1]; application amount 0.4 g/a) was 5 (Growth control,rates of more than 90% (almost completely withered)), the “herbicidal effect, M” value ([1]; application amount 0.8 g/a) was 5 (Growth control,rates of more than 90% (almost completely withered)) and the “herbicidal effect, M” value ([1]; application amount 1.6 g/a) was 5 (Growth control,rates of more than 90% (almost completely withered)). For the same compound, the “herbicidal effect, H (Solanum nigrum L.)” value ([2]; application amount 0.4 g/a) was 5 (Growth control,rates of more than 90% (almost completely withered)), the “herbicidal effect, H (Solanum nigrum L.)” value ([2]; application amount 0.8 g/a) was 5 (Growth control,rates of more than 90% (almost completely withered)) and the “herbicidal effect, H (Solanum nigrum L.)” value ([2]; application amount 1.6 g/a) was 5 (Growth control,rates of more than 90% (almost completely withered)). The “herbicidal effect, C” value ([3]; application amount 0.4 g/a) was 2 (Growth control rates of 20 to 40%), the “herbicidal effect, C” value ([3]; application amount 0.8 g/a) was 3 (Growth control rates of 40 to 70%) and the “herbicidal effect, C” value ([3]; application amount 1.6 g/a) was 4 (Growth control rates of 70 to 90%). The “herbicidal effect, T (Zea mays)” value ([4]; application amount 0.4 g/a) was 4 (Growth control rates of 70 to 90%), the “herbicidal effect, T (Zea mays)” value ([4]; application amount 0.8 g/a) was 5 (Growth control,rates of more than 90% (almost completely withered)) and the “herbicidal effect, T (Zea mays)” value ([4]; application amount 1.6 g/a) was 5 (Growth control,rates of more than 90% (almost completely withered)). The “herbicidal effect, R (Oryza sativa)” value ([5]; application amount 0.4 g/a) was 2 (Growth control rates of 20 to 40%), the “herbicidal effect, R (Oryza sativa)” value ([5]; application amount 0.8 g/a) was 3 (Growth control rates of 40 to 70%) and the “herbicidal effect, R (Oryza sativa)” value ([5]; application amount 1.6 g/a) was 5 (Growth control,rates of more than 90% (almost completely withered)). The “herbicidal effect, W (Triticum vulgare)” value ([6]; application amount 0.4 g/a) was 4 (Growth control rates of 70 to 90%), the “herbicidal effect, W (Triticum vulgare)” value ([6]; application amount 0.8 g/a) was 5 (Growth control,rates of more than 90% (almost completely withered)) and the “herbicidal effect, W (Triticum vulgare)” value ([6]; application amount 1.6 g/a) was 5 (Growth control,rates of more than 90% (almost completely withered)). The “herbicidal effect, S (Glysine max)” value ([7]; application amount 0.4 g/a) was 0 (Growth control rates of less than 5% (substantially no effect)), the “herbicidal effect, S (Glysine max)” value ([7]; application amount 0.8 g/a) was 1 (Growth control rates of 5 to 20%) and the “herbicidal effect, S (Glysine max)” value ([7]; application amount 1.6 g/a) was 2 (Growth control rates of 20 to 40%). For the same compound, the “herbicidal effect, I (Rorippa indica)” value ([8]; application amount 0.4 g/a) was 5 (Growth control,rates of more than 90% (almost completely withered)), the “herbicidal effect, I (Rorippa indica)” value ([8]; application amount 0.8 g/a) was 5 (Growth control,rates of more than 90% (almost completely withered)) and the “herbicidal effect, I (Rorippa indica)” value ([8]; application amount 1.6 g/a) was 5 (Growth control,rates of more than 90% (almost completely withered)). The “herbicidal effect, D (Galinsoga ciliat)” value ([9]; application amount 0.4 g/a) was 5 (Growth control,rates of more than 90% (almost completely withered)), the “herbicidal effect, D (Galinsoga ciliat)” value ([9]; application amount 0.8 g/a) was 5 (Growth control,rates of more than 90% (almost completely withered)) and the “herbicidal effect, D (Galinsoga ciliat)” value ([9]; application amount 1.6 g/a) was 5 (Growth control,rates of more than 90% (almost completely withered)). For the same compound, the “herbicidal effect, N” value ([10]; application amount 0.4 g/a) was 5 (Growth control,rates of more than 90% (almost completely withered)), the “herbicidal effect, N” value ([10]; application amount 0.8 g/a) was 5 (Growth control,rates of more than 90% (almost completely withered)) and the “herbicidal effect, N” value ([10]; application amount 1.6 g/a) was 5 (Growth control,rates of more than 90% (almost completely withered)). For the same compound, the “herbicidal effect, K (Cyperus microiria)” value ([11]; application amount 0.4 g/a) was 5 (Growth control,rates of more than 90% (almost completely withered)), the “herbicidal effect, K (Cyperus microiria)” value ([11]; application amount 0.8 g/a) was 5 (Growth control,rates of more than 90% (almost completely withered)) and the “herbicidal effect, K (Cyperus microiria)” value ([11]; application amount 1.6 g/a) was 5 (Growth control,rates of more than 90% (almost completely withered)).
